This note sets out measurements from patent publication US9726664B2, “Animal model for diabetic complications” (NEDERLANDSE ORGANISATIE VOOR …, priority 2010, dated 2017).

Assay [1] relates to LDLr−/− mice. In words: Intervention study in LDLr−/− mice on 45 En % Lard diet: microalbuminuria (albumine/creatinine ratio in spot urine). The class given is in vivo. As to conditions: compared to high fat treated control animals not treated with drugs, ratio as μg albumine per mg creatinine, drug mixed into 45 En % Lard diet from week 9 until week 16, FIG. 7. As to the method:
Several anti-diabetic interventions (drugs and life-style) were tested according to the experimental set-up described above.
After these 9 weeks, the interventions were started and continued until week 16. Drugs were mixed into lard diet and administered orally via the feed. One group of mice was sacrifice at the start of the intervention at week 9 for reference. Another control group was fed chow throughout the 16 weeks (serving as internal reference). The groups were as follows:
(§1) Body weight and food intake were measured regularly and blood samples were taken at t=0, t=6, t=9, t=12, t=14 and t=15 weeks. Spot urine was collected at t=0, t=8 and t=15 weeks. At the end of the study, the mice were sacrificed and the various organs were isolated and weighed and stored at −80 C and/or in formalin. Livers were processed for microarray analysis. More specifically, the same lobe of each liver was used for RNA extraction to prepare mRNA of microarray quality according to an established protocol (Kleemann et al., Genome Biology, 2007).
Microalbuminuria is a hallmark of diabetic nephropathy and was determined by measuring the concentration of albumine and creatinine in spot urine collected at various time points during the experiment. Subsequently the albumine/creatinine ratio was calculated, viz. the amount of albumine expressed in μg per mg creatinine (FIG. 7).

The subject of assay [2] is LDLr−/− mice. Briefly: Intervention study in LDLr−/− mice on 45 En % Lard diet: body weight and adipose depots. As to conditions: for gonadal fat mass: drug mixed into diet from week 9 until week 16, FIG. 6. Type of assay: in vivo. As to the method: Based on the findings of the above experiment, an intervention study was designed. The middle dose (45 En % lard diet) was defined to be the optimal diet to use for interventions with drugs since ALAT was not increased Thereby putative adverse liver effects of drugs can still be detected. Several anti-diabetic interventions (drugs and life-style) were tested according to the experimental set-up described above.
LDLr−/− mice (12 weeks old) were fed 45 En % Lard diet for 9 weeks to establish a prediabetic state (as described above and including visceral adiposity, hypertriglyceridemia, elevated glucose and insulin, chronic inflammation). After these 9 weeks, the interventions were started and continued until week 16. Drugs were mixed into lard diet and administered orally via the feed. One group of mice was sacrifice at the start of the intervention at week 9 for reference. Another control group was fed chow throughout the 16 weeks (serving as internal reference). The groups were as follows:
as §1

Each structure is given as a SMILES string.

Regarding `CC(C)c1c(C(=O)Nc2ccccc2)c(-c2ccccc2)c(-c2ccc(F)cc2)n1CC[C@@H](O)C[C@@H](O)CC(=O)O` [atorvastatin], the “albumine/creatinine ratio (microalbuminuria)” value (“albumine/creatinine ratio” below) in the assay with LDLr−/− mice [1] is on record as “significantly improved”.
As for `O=S(=O)(c1ccccc1)N(CC(F)(F)F)c1ccc(C(O)(C(F)(F)F)C(F)(F)F)cc1` [LXR agonist], the gonadal fat mass result in the assay with LDLr−/− mice [2] was “lowered”. For the same compound, in the assay on LDLr−/− mice [2] (drug mixed into diet, orally via feed, from week 9 until week 16, FIG. 5), the body weight result is given as “reduced”.
As to `COc1ccc(Cl)cc1C(=O)NCCc1ccc(S(=O)(=O)NC(=O)NC2CCCCC2)cc1` [glibenclamide, Glibenclamide], in the assay on LDLr−/− mice [1], the “albumine/creatinine ratio” value is “significantly improved”. Moreover, the gonadal fat mass result in the assay with LDLr−/− mice [2] was “lowered”.
On the same counts, the results for `O=C(O)c1ccccc1O` [salicylate] are “significantly improved” and “lowered”.
In the case of `CN(C)C(=N)N=C(N)N` [metformin], in the assay on LDLr−/− mice [1], the “albumine/creatinine ratio” value is recorded as “significantly improved”.
